Holding throughout (assay): NCI-60 cell line screen, 48 h
Assay [1] has as its system KM-20L2.
The test system of assay [2] is DMS-273.
In assay [3] the test system is DMS-114.
For assay [4], the system named is LXFL 529.
Assay [5] concerns RXF 631.
Assay [6] concerns DLD-1.
For assay [7], the system named is HOP-18.
Assay [8] concerns SNB-78.
In assay [9] the test system is XF498.

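Briefly, cells in 96-well plates were exposed to five compound concentrations for 48 h, and endpoints were estimated by linear interpolation. GI50 is the concentration that inhibits growth by half.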 The source made the active and inactive calls. Cut-off read from the data, not from the text of the source: active = GI50 up to about 1.1 µM and inactive = higher.

From ChEMBL document CHEMBL1201862, “PubChem BioAssay data set” (2004) come the findings set out here.

For `O=C1/C(=C/c2ccccc2)CN(C(=O)CCN2CCOCC2)C/C1=C\c1ccccc1`, the GI50 was 1.92 µM (inactive) in [1]; 1.87 µM (inactive) in assay [2]; 2.88 µM (inactive) in assay [3]; 2.52 µM (inactive) in assay [4]; 7.8 µM (inactive) in assay [5]; 1.88 µM (inactive) in [6]. Besides, the results for the GI50 in [7] and in assay [8] were 16.7 µM (inactive) and 6.4 µM (inactive), respectively.

Consider `CCO/C=C/C(C)C1(C(=O)OCC)CCCCC1=O` (configuration not stated), for which the GI50 in [9] is > 100 µM (inactive); in assay [1], > 100 µM (inactive); in assay [2], 21.4 µM (inactive); in assay [3], 86.9 µM (inactive); in assay [4] it was > 100 µM (inactive); in assay [5] it was > 100 µM (inactive). Further, the GI50 in [6], in assay [7] and in [8] was > 100 µM (inactive) in each case.

Regarding `Oc1ccc2c3c1OC1C(=NN=C4CCC5(O)C6Cc7ccc(O)c8c7C5(CCN6CC5CC5)C4O8)CCC4(O)C(C2)N(CC2CC2)CCC314` (configuration not stated), the GI50 in assay [9] was 19 µM (inactive); in assay [1] it was 20.2 µM (inactive); in [2], 24.9 µM (inactive); in assay [3] it was 21.6 µM (inactive); in assay [4], 20.8 µM (inactive); in [6], 46 µM (inactive). The results for the GI50 in assay [7] and in assay [8] were > 100 µM (inactive) and 62.5 µM (inactive), respectively.

`O=C1CCCC/C(=C/c2ccccc2)N1`: the GI50 in assay [9] was > 100 µM (inactive); in assay [1], > 100 µM (inactive); in [2] it was > 100 µM (inactive); in assay [3], 50.4 µM (inactive); in assay [4], > 100 µM (inactive); in [6] it was > 100 µM (inactive). For the same compound, the GI50 in [7] and in [8] was > 100 µM (inactive) each time.

Turning to `COc1ccc(OC)c(NC(=O)CCC/C(CC(=O)c2ccc(O)c(OC)c2)=N\Nc2ccc([N+](=O)[O-])cc2)c1`, the GI50 in [9] is 41.1 µM (inactive); in assay [1] it was > 100 µM (inactive); in assay [2], 57.3 µM (inactive); in [3], > 100 µM (inactive); in assay [4], 32.7 µM (inactive); in assay [5], 96.4 µM (inactive). Moreover, the GI50 in assay [6] was > 100 µM (inactive); in assay [7], > 100 µM (inactive); in assay [8], 43.6 µM (inactive).

For `NC1=NN(c2ccccc2)C(=O)C1C(=O)C(=O)Nc1nccs1` (configuration not stated), the GI50 in [1], in [2], in assay [3], in assay [4], in assay [5] and in [6] was > 100 µM (inactive) throughout. The GI50 in [7] and in assay [8] was > 100 µM (inactive) each time.

Regarding `O=C(C(=O)N1CC2C=CC1CC2)c1c[nH]c2ccccc12` (configuration not stated), the GI50 in assay [1], in [2], in assay [3], in assay [4], in assay [5] and in [6] was > 100 µM (inactive) in each case. Moreover, the GI50 in [7] and in [8] was > 100 µM (inactive) throughout.

With `Cc1ccc2nc(NC(=O)C(=O)C(C(=O)c3ccc4ccccc4c3)C3OC(=O)c4ccccc43)sc2c1` (configuration not stated), the GI50 in assay [3] is 8.22 µM (inactive); in [4], 4.35 µM (inactive); in assay [6], 13 µM (inactive); in assay [8], 4.36 µM (inactive).

Turning to `COc1ccc(-c2cc(=O)c3ccccc3[nH]2)c(OC)c1`, the GI50 in assay [1], in assay [2], in [3], in assay [4], in assay [6] and in [8] was > 100 µM (inactive) throughout.

On to `CC(=O)O[C@H]1CC[C@@]2(C)C(=CC[C@@H]3C2CC[C@]2(C)Nc4[nH]ncc4CC32)C1` (some centres not stated), for which the GI50 in assay [9] is 4.1 µM (inactive); in assay [1] it was 27.9 µM (inactive); in [2], 16.9 µM (inactive); in assay [3], 16.5 µM (inactive); in assay [4], 19.9 µM (inactive); in assay [5] it was 16.7 µM (inactive). Besides, the GI50 in assay [6] is 32 µM (inactive); in [8] it was 42.7 µM (inactive).

Consider `CC(C)(C)C1CC[C@H]2c3c([nH]c4ccc(Br)cc34)[C@H]3C(=O)N(c4ccccc4)C(=O)[C@H]3[C@H]2C1` (some centres not stated), for which the GI50 in [9] was 16.9 µM (inactive); in assay [1] it was 45.9 µM (inactive); in assay [2] it was 6.27 µM (inactive); in [3], 18.2 µM (inactive); in [4], 14.3 µM (inactive); in [5], 4.13 µM (inactive). The GI50 in [6] was 27.8 µM (inactive); in assay [7], 33 µM (inactive); in [8], 10 µM (inactive).

Regarding `N#CCC(=O)N/N=C1/C(=O)NC(=O)C(=O)C1c1nc2ccccc2s1` (configuration not stated), the GI50 in [1], in assay [2], in assay [3], in [4], in [5] and in assay [6] was > 100 µM (inactive) throughout. Further, the GI50 in [7] and in [8] was > 100 µM (inactive) in each case.

Consider `CCC(C)Cn1c(C)nc2c1C(=O)c1ccccc1C2=O` (configuration not stated), for which the GI50 is 22.5 µM (inactive) in [9]; 31.2 µM (inactive) in assay [1]; 9.86 µM (inactive) in [2]; 17 µM (inactive) in [4]; 24.6 µM (inactive) in assay [6]; 34.4 µM (inactive) in assay [8].

With `CCCCCCCCCCCCOP(N)(=O)OCCCCCCCCCCCC`, the GI50 in [2], in assay [3], in [4], in assay [6] and in assay [8] was > 100 µM (inactive) in each case.

With `CC1(C)C(=O)C(C)(C)C1=S`, the GI50 in assay [9], in assay [1], in [2], in [3], in [4] and in assay [6] was > 100 µM (inactive) in each case.

Consider `COC(C)(C)[C@H](O)C(O)CC(C)[C@@H]1CCC23CC12CCC1[C@@]2(C)CCC(OC(C)=O)C(C)(C)C2CC(OC2OC(COC(C)=O)C(O)C(O)C2O)[C@]13C` (some centres not stated), for which the GI50 in assay [1] is 1.1 µM (active); in [2] it was 2.97 µM (inactive); in assay [3], 2.61 µM (inactive); in assay [4], 4.89 µM (inactive); in assay [5] it was 4.86 µM (inactive); in assay [6], 1.83 µM (inactive). Besides, the GI50 in assay [7] is 11 µM (inactive); in assay [8], 8.07 µM (inactive).

Turning to `C=C(CN(C)C)C(=O)c1ccccc1[N+](=O)[O-]`, the GI50 in assay [9] was 17.1 µM (inactive); in [1], 23.4 µM (inactive); in [2], 18.2 µM (inactive); in [3], 18.3 µM (inactive); in [4] it was 14.8 µM (inactive); in assay [5], 19 µM (inactive). Further, the GI50 was 13.4 µM (inactive) in assay [6], 18.7 µM (inactive) in assay [7] and 26.7 µM (inactive) in [8].
